From patent publication US10499642B2, “Isoxazoline-substituted benzamides and analogues as insecticides” (SYNGENTA PARTICIPATIONS AG, priority 2015, dated 2019)

Legend:
Format in all cases: in vivo
Spodoptera littoralis = Spodoptera littoralis (Egyptian cotton leaf worm) cotton leaf disc test; settings: foliar, 72 h, read-out: control (at least one of mortality, anti-feedant effect, and growth inhibition)
Method in brief: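 Five first-instar larvae per disc were placed on dried, sprayed cotton leaf discs held on agar. Test solutions were aqueous, made from 10′000 ppm DMSO stocks. At day 3, control was counted when mortality, feeding deterrence or growth inhibition exceeded the untreated discs.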

Plutella xylostella = Plutella xylostella (diamond back moth) artificial diet test; settings: 120 h, read-out: effect in at least one of the two categories (mortality or growth inhibition)
Method in brief: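 At a 200 ppm rate, test solutions were applied to artificial diet and allowed to dry before second-instar larvae were added. Five days later, larval mortality and growth inhibition were rated against untreated samples.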

Diabrotica Balteata = test: Diabrotica balteata (corn root worm) maize sprout test; settings: 96 h, read-out: effect in at least one of the two categories (mortality or growth inhibition)
Method in brief: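 Scoring covered both mortality and growth inhibition relative to untreated controls, 4 days post-infestation. Test solutions at 200 ppm, diluted in water from 10′000 ppm DMSO stocks, were sprayed onto agar-held maize sprouts, which after drying received 6 to 10 L2 larvae each well.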

Thrips tabaci = Thrips tabaci (onion thrips) sunflower leaf disc test; settings: foliar, 144 h
Procedure: Thrips tabaci (Onion Thrips):
(§1) Sunflower leaf discs were placed on agar in 24-well microtiter plates and sprayed with aqueous test solutions prepared from 10′000 ppm DMSO stock solutions. After drying the leaf discs were infested with a thrips population of mixed ages. The samples were assessed for mortality 6 days after infestation.

Tetranychus urticae = Tetranychus urticae (two-spotted spider mite) bean leaf disc test; settings: foliar, 192 h
Procedure: Tetranychus urticae (Two-Spotted Spider Mite):
as §1, with “Bean” for “Sunflower”, “discs” for “discs were placed”, “were” for “and”, “mite” for “thrips”, “on mixed population (mobile stages) 8” for “6”

Myzus persicae = Myzus persicae (green peach aphid) sunflower leaf disc test; settings: foliar, 144 h
Procedure: Myzus persicae (Green Peach Aphid):
Sunflower leaf discs were placed on agar in a 24-well microtiter plate and sprayed with test solutions at an application rate of 200 ppm. After drying, the leaf discs were infested with an aphid population of mixed ages. After an incubation period of 6 days after treatment, samples were checked for mortality. The following compounds gave at least 80% mortality of Myzus persicae: […]

Cc1cc(C2=NO[C@@](c3cc(Cl)c(F)c(Cl)c3)(C(F)(F)F)C2)ccc1C(=O)NC1CC(OC2CCC2)=NO1 (stereo partly drawn) [Compound A079]
≥ 80%: percent control (mortality, anti-feedant effect or growth inhibition) at 200 ppm (Spodoptera littoralis) | percent effect (mortality or growth inhibition) at 200 ppm (Plutella xylostella) | percent effect (mortality or growth inhibition) at 200 ppm (Diabrotica Balteata) | mortality at 200 ppm (Thrips tabaci) | mortality at 200 ppm (Tetranychus urticae) | mortality at 200 ppm (Myzus persicae)

C=C(C)COC1=NOC(NC(=O)c2ccc(C3=NO[C@@](c4cc(Cl)c(F)c(Cl)c4)(C(F)(F)F)C3)cc2C)C1 (stereo partly drawn) [Compound A080]
≥ 80%: percent control (mortality, anti-feedant effect or growth inhibition) at 200 ppm (Spodoptera littoralis) | percent effect (mortality or growth inhibition) at 200 ppm (Plutella xylostella) | percent effect (mortality or growth inhibition) at 200 ppm (Diabrotica Balteata) | mortality at 200 ppm (Thrips tabaci) | mortality at 200 ppm (Tetranychus urticae) | mortality at 200 ppm (Myzus persicae)

C=C(F)COC1=NOC(NC(=O)c2ccc(C3=NO[C@@](c4cc(Cl)c(F)c(Cl)c4)(C(F)(F)F)C3)cc2C)C1 (stereo partly drawn) [Compound A081]
≥ 80%: percent control (mortality, anti-feedant effect or growth inhibition) at 200 ppm (Spodoptera littoralis) | percent effect (mortality or growth inhibition) at 200 ppm (Plutella xylostella) | percent effect (mortality or growth inhibition) at 200 ppm (Diabrotica Balteata) | mortality at 200 ppm (Thrips tabaci) | mortality at 200 ppm (Tetranychus urticae) | mortality at 200 ppm (Myzus persicae)

Cc1cc(C2=NO[C@@](c3cc(Cl)c(F)c(Cl)c3)(C(F)(F)F)C2)ccc1C(=O)NC1CC(OC2COC2)=NO1 (stereo partly drawn) [Compound A082]
≥ 80%: percent control (mortality, anti-feedant effect or growth inhibition) at 200 ppm (Spodoptera littoralis) | percent effect (mortality or growth inhibition) at 200 ppm (Plutella xylostella) | percent effect (mortality or growth inhibition) at 200 ppm (Diabrotica Balteata) | mortality at 200 ppm (Thrips tabaci) | mortality at 200 ppm (Tetranychus urticae) | mortality at 200 ppm (Myzus persicae)

Cc1cc(C2=NO[C@@](c3cc(Cl)c(F)c(Cl)c3)(C(F)(F)F)C2)ccc1C(=O)NC1CC(OCC2CC2)=NO1 (stereo partly drawn) [Compound A083]
≥ 80%: percent control (mortality, anti-feedant effect or growth inhibition) at 200 ppm (Spodoptera littoralis) | percent effect (mortality or growth inhibition) at 200 ppm (Plutella xylostella) | percent effect (mortality or growth inhibition) at 200 ppm (Diabrotica Balteata) | mortality at 200 ppm (Thrips tabaci) | mortality at 200 ppm (Tetranychus urticae) | mortality at 200 ppm (Myzus persicae)

Cc1cc(C2=NO[C@@](c3cc(Cl)c(F)c(Cl)c3)(C(F)(F)F)C2)ccc1C(=O)NC1CC(OC/C=C/C(F)(F)F)=NO1 (stereo partly drawn) [Compound A084, 4-[(5S)-5-(3,5-dichloro-4-fluoro-phenyl)-5-(trifluoromethyl)-4H-isoxazol-3-yl]-2-methyl-N-[3-[(E)-4,4,4-trifluorobut-2-enoxy]-4,5-dihydroisoxazol-5-yl]benzamide]
≥ 80%: percent control (mortality, anti-feedant effect or growth inhibition) at 200 ppm (Spodoptera littoralis) | percent effect (mortality or growth inhibition) at 200 ppm (Plutella xylostella) | percent effect (mortality or growth inhibition) at 200 ppm (Diabrotica Balteata) | mortality at 200 ppm (Thrips tabaci) | mortality at 200 ppm (Tetranychus urticae) | mortality at 200 ppm (Myzus persicae)

CC(C)=CCOC1=NOC(NC(=O)c2ccc(C3=NO[C@@](c4cc(Cl)c(F)c(Cl)c4)(C(F)(F)F)C3)cc2C)C1 (stereo partly drawn) [Compound A085]
≥ 80%: percent control (mortality, anti-feedant effect or growth inhibition) at 200 ppm (Spodoptera littoralis) | percent effect (mortality or growth inhibition) at 200 ppm (Plutella xylostella) | percent effect (mortality or growth inhibition) at 200 ppm (Diabrotica Balteata) | mortality at 200 ppm (Thrips tabaci) | mortality at 200 ppm (Tetranychus urticae) | mortality at 200 ppm (Myzus persicae)

Cc1cc(C2=NO[C@@](c3cc(Cl)c(F)c(Cl)c3)(C(F)(F)F)C2)ccc1C(=O)N(C(=O)OC(C)(C)C)C1CC=NO1 (stereo partly drawn) [Compound A086, tert-butyl N-[4-[(5S)-5-(3,5-dichloro-4-fluoro-phenyl)-5-(trifluoromethyl)-4H-isoxazol-3-yl]-2-methyl-benzoyl]-N-(4,5-dihydroisoxazol-5-yl)carbamate]
≥ 80%: percent control (mortality, anti-feedant effect or growth inhibition) at 200 ppm (Spodoptera littoralis) | percent effect (mortality or growth inhibition) at 200 ppm (Plutella xylostella) | percent effect (mortality or growth inhibition) at 200 ppm (Diabrotica Balteata) | mortality at 200 ppm (Thrips tabaci) | mortality at 200 ppm (Tetranychus urticae) | mortality at 200 ppm (Myzus persicae)

Cc1cc(C2=NO[C@@](c3cc(Cl)c(F)c(Cl)c3)(C(F)(F)F)C2)ccc1C(=O)NC1CC(CO)=NO1 (stereo partly drawn) [Compound A087, 4-[(5S)-5-(3,5-dichloro-4-fluoro-phenyl)-5-(trifluoromethyl)-4H-isoxazol-3-yl]-N-[3-(hydroxymethyl)-4,5-dihydroisoxazol-5-yl]-2-methyl-benzamide]
≥ 80%: percent control (mortality, anti-feedant effect or growth inhibition) at 200 ppm (Spodoptera littoralis) | percent effect (mortality or growth inhibition) at 200 ppm (Plutella xylostella) | percent effect (mortality or growth inhibition) at 200 ppm (Diabrotica Balteata) | mortality at 200 ppm (Thrips tabaci) | mortality at 200 ppm (Tetranychus urticae) | mortality at 200 ppm (Myzus persicae)

Cc1cc(C2=NO[C@@](c3cc(Cl)c(F)c(Cl)c3)(C(F)(F)F)C2)ccc1C(=O)NC1CC(COC=O)=NO1 (stereo partly drawn) [Compound A089]
≥ 80%: percent control (mortality, anti-feedant effect or growth inhibition) at 200 ppm (Spodoptera littoralis) | percent effect (mortality or growth inhibition) at 200 ppm (Plutella xylostella) | percent effect (mortality or growth inhibition) at 200 ppm (Diabrotica Balteata) | mortality at 200 ppm (Thrips tabaci) | mortality at 200 ppm (Tetranychus urticae) | mortality at 200 ppm (Myzus persicae)

COCC1=NOC(NC(=O)c2ccc(C3=NO[C@@](c4cc(Cl)c(F)c(Cl)c4)(C(F)(F)F)C3)cc2C)C1 (stereo partly drawn) [Compound A090]
≥ 80%: percent control (mortality, anti-feedant effect or growth inhibition) at 200 ppm (Spodoptera littoralis) | percent effect (mortality or growth inhibition) at 200 ppm (Plutella xylostella) | percent effect (mortality or growth inhibition) at 200 ppm (Diabrotica Balteata) | mortality at 200 ppm (Thrips tabaci) | mortality at 200 ppm (Tetranychus urticae) | mortality at 200 ppm (Myzus persicae)

Cc1cc(C2=NO[C@@](c3cc(Cl)c(F)c(Cl)c3)(C(F)(F)F)C2)ccc1C(=O)NC1CC=NO1 (stereo partly drawn) [Compound A091]
≥ 80%: percent control (mortality, anti-feedant effect or growth inhibition) at 200 ppm (Spodoptera littoralis) | percent effect (mortality or growth inhibition) at 200 ppm (Plutella xylostella) | percent effect (mortality or growth inhibition) at 200 ppm (Diabrotica Balteata) | mortality at 200 ppm (Thrips tabaci) | mortality at 200 ppm (Tetranychus urticae) | mortality at 200 ppm (Myzus persicae)

Cc1cc(C2=NO[C@@](c3cc(Cl)c(F)c(Cl)c3)(C(F)(F)F)C2)ccc1C(=O)NC1CC(C=O)=NO1 (stereo partly drawn) [Compound A099]
≥ 80%: percent control (mortality, anti-feedant effect or growth inhibition) at 200 ppm (Spodoptera littoralis) | percent effect (mortality or growth inhibition) at 200 ppm (Plutella xylostella) | percent effect (mortality or growth inhibition) at 200 ppm (Diabrotica Balteata) | mortality at 200 ppm (Thrips tabaci) | mortality at 200 ppm (Tetranychus urticae) | mortality at 200 ppm (Myzus persicae)

C=C(Cl)COC1=NOC(NC(=O)c2ccc(C3=NO[C@@](c4cc(Cl)c(F)c(Cl)c4)(C(F)(F)F)C3)cc2C)C1 (stereo partly drawn) [Compound A100, N-[3-(2-chloroallyloxy)-4,5-dihydroisoxazol-5-yl]-4-[(5S)-5-(3,5-dichloro-4-fluoro-phenyl)-5-(trifluoromethyl)-4H-isoxazol-3-yl]-2-methyl-benzamide]
≥ 80%: percent control (mortality, anti-feedant effect or growth inhibition) at 200 ppm (Spodoptera littoralis) | percent effect (mortality or growth inhibition) at 200 ppm (Plutella xylostella) | percent effect (mortality or growth inhibition) at 200 ppm (Diabrotica Balteata) | mortality at 200 ppm (Thrips tabaci) | mortality at 200 ppm (Tetranychus urticae) | mortality at 200 ppm (Myzus persicae)

Cc1cc(C2=NO[C@@](c3cc(Cl)c(F)c(Cl)c3)(C(F)(F)F)C2)ccc1C(=O)NC1CC(OCC(F)(F)C(F)F)=NO1 (stereo partly drawn) [Compound A101]
≥ 80%: percent control (mortality, anti-feedant effect or growth inhibition) at 200 ppm (Spodoptera littoralis) | percent effect (mortality or growth inhibition) at 200 ppm (Plutella xylostella) | percent effect (mortality or growth inhibition) at 200 ppm (Diabrotica Balteata) | mortality at 200 ppm (Thrips tabaci) | mortality at 200 ppm (Tetranychus urticae) | mortality at 200 ppm (Myzus persicae)

Cc1cc(C2=NO[C@@](c3cc(Cl)c(F)c(Cl)c3)(C(F)(F)F)C2)ccc1C(=O)NC1CC(OCC(F)(F)C(F)(F)F)=NO1 (stereo partly drawn) [Compound A102]
≥ 80%: percent control (mortality, anti-feedant effect or growth inhibition) at 200 ppm (Spodoptera littoralis) | percent effect (mortality or growth inhibition) at 200 ppm (Plutella xylostella) | percent effect (mortality or growth inhibition) at 200 ppm (Diabrotica Balteata) | mortality at 200 ppm (Thrips tabaci) | mortality at 200 ppm (Tetranychus urticae) | mortality at 200 ppm (Myzus persicae)

Cc1cc(C2=NO[C@@](c3cc(Cl)c(F)c(Cl)c3)(C(F)(F)F)C2)ccc1C(=O)NC1CC(OCC(F)(F)F)=NO1 (stereo partly drawn) [Compound A103]
≥ 80%: percent control (mortality, anti-feedant effect or growth inhibition) at 200 ppm (Spodoptera littoralis) | percent effect (mortality or growth inhibition) at 200 ppm (Plutella xylostella) | percent effect (mortality or growth inhibition) at 200 ppm (Diabrotica Balteata) | mortality at 200 ppm (Thrips tabaci) | mortality at 200 ppm (Tetranychus urticae) | mortality at 200 ppm (Myzus persicae)

CCCCOC1=NOC(NC(=O)c2ccc(C3=NO[C@@](c4cc(Cl)c(F)c(Cl)c4)(C(F)(F)F)C3)cc2C)C1 (stereo partly drawn) [Compound A104]
≥ 80%: percent control (mortality, anti-feedant effect or growth inhibition) at 200 ppm (Spodoptera littoralis) | percent effect (mortality or growth inhibition) at 200 ppm (Plutella xylostella) | percent effect (mortality or growth inhibition) at 200 ppm (Diabrotica Balteata) | mortality at 200 ppm (Thrips tabaci) | mortality at 200 ppm (Tetranychus urticae) | mortality at 200 ppm (Myzus persicae)

Cc1cc(C2=NO[C@@](c3cc(Cl)c(F)c(Cl)c3)(C(F)(F)F)C2)ccc1C(=O)NC1CC(N(C)C)=NO1 (stereo partly drawn) [Compound A105, 4-[(5S)-5-(3,5-dichloro-4-fluoro-phenyl)-5-(trifluoromethyl)-4H-isoxazol-3-yl]-N-[3-(dimethylamino)-4,5-dihydroisoxazol-5-yl]-2-methyl-benzamide]
≥ 80%: percent control (mortality, anti-feedant effect or growth inhibition) at 200 ppm (Spodoptera littoralis) | percent effect (mortality or growth inhibition) at 200 ppm (Plutella xylostella) | percent effect (mortality or growth inhibition) at 200 ppm (Diabrotica Balteata) | mortality at 200 ppm (Thrips tabaci) | mortality at 200 ppm (Tetranychus urticae) | mortality at 200 ppm (Myzus persicae)
